Assay results: patent publication US6696607B2 (priority 2000, dated 2004)

System: Phytophthora infestans
Assay type: in vivo
Conditions: 63 ppm active ingredient; tomato leaves infected one week after application; assessed after 6 days; untreated plants 100%

## CO/N=C(/C(=O)NCCc1ccc(OC)c(OC)c1)c1ccc(Cl)cc1 [comparative active ingredient]
  disease level: 40%
